{"source": "paper PMC9503459", "about": "“Antifungal Activity, Structural Stability, and Immunomodulatory Effects on Human Immune Cells of Defensin from the Lentil Lens culinaris” (Membranes, 2022)", "key": {"[1]": {"test_system": "clinical isolate of C. glabrata (252/2)", "assay": "Antifungal microdilution assay, C. glabrata", "assay_type": "cell-based, Candida glabrata", "details": "24 h; for inhibition of the growth: C. glabrata", "procedure": "The clinical isolates of Candida albicans (v47a3), C. krusei (225/2) and C. glabrata (252/2) were collected from patients with human immunodeficiency virus (HIV) infection and provided by G.N. Gabrichevsky Research Institute for Epidemiology and Microbiology (Moscow, Russia). Strains stocks were kept at −70 ℃ in 10% nonfat milk with 10% glycerol.\nAntifungal susceptibility tests were performed by the microdilution method using 96-well microplates. Yeast cells in stock were inoculated onto modified YPD (yeast extract 5 g/L, peptone 10 g/L, glucose 10 g/L) agar plates, and incubated for 24 h at 37 ℃. After replating, cells were cultured in modified YPD broth at 37 ℃ to optical density 1.0 at 540 nm. Further, yeast cells in modified YPD broth at concentration of 5 × 10^4 cells/mL were mixed with equal volumes of serial two-fold dilutions of the peptide in water which started at the highest peptide concentration of 200 µM. Final peptide concentrations in the wells were 100, 50, 25, 12.5, 6.25, 3.125, and 1.56 μM. Controls without defensin were also tested. Plates were incubated at 30 ℃ during 24 h. Yeast growth was estimated using inverted microscope as well as by measuring the optical density at 540 nm. Percentage of growth inhibition was defined as: growth inhibition (%) = ((Acontrol − Asample)/Acontrol) × 100%. All of the experiments were performed twice in triplicate. The t-test was performed to study the statistical difference (p-value) between the means of controls and samples with different peptide concentrations. The experiment with lentil Lens culinaris lipid transfer protein Lc-LTP2 was carried out for comparison."}, "[2]": {"test_system": "human red blood cells (hRBC)", "assay": "Hemolytic assay", "assay_type": "cell-based", "details": "100 μM, 4% hRBC in PBS pH 7.2, 1.5 h, 37 °C, A405", "procedure": "Hemolytic activity of Lc-def was studied using 96-well microplates. Fresh human red blood cells (hRBC) were washed three times with ice-cold PBS, pH 7.2. Serial two-fold dilutions of Lc-def and membrane-active peptide melittin from the venom of honeybees as positive control (final concentrations from 0.1 to 100 μM) were then added to hRBC in PBS (final concentration of 4% (v/v)). The suspension was incubated for 1.5 h at 37 °C. After, intact hRBC sedimentation aliquots of the supernatants containing released hemoglobin were transferred to 96-well microplates, and the absorbance at 405 nm was measured. hRBC in PBS or 0.1% Triton X-100 were employed as negative (control0) and positive (control100) controls, respectively. The percentage of hemolysis was calculated as: hemolysis(%) = ((Asample − Acontrol0)/(Acontrol100 − Acontrol0)) × 100%. Experiment was carried out twice in triplicate using the same blood."}, "[3]": {"test_system": "PBMCs", "assay": "Resazurin-based cytotoxicity assay, PBMCs", "assay_type": "cell-based, human", "details": "50 μM peptide, 24 h", "procedure": "The cytotoxic properties of Lc-def and melittin as a control were investigated also by resazurin-based cell cytotoxicity assay. PBMCs and THP-1 cells were seeded in 96-well plates at 2 × 10^6 and 1 × 10^6 cells per well, respectively, in RPMI-1640 supplemented with 10% FBS, and kept in CO2-incubator. After 24 h serial two-fold dilutions of compounds in culture medium were then added to final concentrations from 0.2 to 50 μM. After 24 h of incubation with the peptides, resazurin (Sigma) was added at a final concentration of 0.7 mM, and the plates were incubated overnight (16 h). Fluorescent resorufin was registered using 535/595 filter at PlateReader AF2200 (Eppendorf, Hamburg, Germany). Untreated corresponding cells were used as negative controls. The cell viability was calculated as: cell viability (%) = (Fsample/Fcontrol) × 100%. The experiment was carried out twice in triplicate."}, "[4]": {"test_system": "proteolytic enzymes of Candida albicans", "assay": "Influence of defensins on degradation of proteins by C. albicans lysate", "assay_type": "biochemical", "details": "SDS-PAGE", "procedure": "For study of Lc-def sensitivity to the clinical isolate of C. albicans, lysates of yeast cells in different concentration and pH were used basically as previously described for rhesus macaque θ-defensin 1 [22]. Cells were inoculated onto modified YPD medium and grown at 37 ℃ for 48 h before reaching the stationary phase of growth. Cells were harvested by centrifugation, washed two times in sterile phosphate buffered saline (PBS), pH 7.2, or sterile 40 mM sodium acetate, pH 4.0, and resuspended in the corresponding buffer to final concentrations of 1 × 10^9 cells/mL or 1 × 10^3 cells/mL. Two freeze-thaw cycles in liquid nitrogen were used for cell disruption, and supernatants were collected following centrifugation. Supernatants (12.5 μL) were mixed with water solutions (37.5 μL) of Lc-def, α-casein, Psd1, or LL-37 in concentration of 0.67 mg/mL and incubated at 37 ℃ for 72 or 24 h in the case of high or low cell concentration, respectively. To study the possible influence of Lc-def and Psd1 on the degradation process, supernatants (12.5 μL) were mixed with both α-casein or LL-37 in concentration of 1 mg/mL (25 μL) and Lc-def or Psd1 in concentration of 2 mg/mL (12.5 μL). As negative controls, α-casein and peptides were mixed with buffers as well as supernatants were mixed with water without the proteins. The samples were mixed with sample buffer without β-mercaptoethanol (BME), heated at 100 ℃ for 2 min, and analyzed by sodium dodecyl sulfate polyacrylamide gel electrophoresis (SDS-PAGE). Some independent experiments were performed in each case."}, "[5]": {"test_system": "phytopathogenic filamentous fungi including Aspergillus niger", "details": "some, but not all, tested fungi including Aspergillus niger; cited from earlier work"}, "[6]": {"details": "C. albicans lysate 10^3 cells/mL, pH 7.2, up to 24 h"}}, "note": "No end group written: not given here."}
{"substance": "Lc-def: defensin from lentil Lens culinaris seeds (UniProt:B3F051), recombinant, overexpressed in Escherichia coli (KTCENLSDSFKGPCIPDGNCNKHCKEKEHLLSGRCRDDFRCWCTRNC; disulfide (positions not given here); ends not checked; also: disulfide bonds present, pairing not given here; UniProt B3F051 28-74, looked up)", "values": [{"measurement": "IC50", "setting": "[1]; C. glabrata clinical isolate, microdilution, modified YPD, 30 °C, OD540, twice in triplicate, read-out: concentration causing 50% growth inhibition", "result": "25 to 50", "unit": "µM"}, {"measurement": "inhibition of the growth", "setting": "[1]; 50 μM peptide", "result": "~90", "unit": "%"}, {"measurement": "inhibition of the growth", "setting": "[1]; 100 μM peptide", "result": "< 100", "unit": "%"}, {"measurement": "hemolysis of erythrocytes", "setting": "[2]", "result": "did not cause hemolysis"}, {"measurement": "cell viability", "setting": "[3]", "result": 100, "unit": "%"}, {"measurement": "influence on LL-37 degradation", "setting": "[4]; [6]", "result": "did not decrease LL-37 degradation"}, {"measurement": "influence on the rate of α-casein degradation", "setting": "[4]; [6]", "result": "decreased the rate of α-casein degradation"}, {"measurement": "influence on degradation of the major protein of C. albicans", "setting": "[4]; C. albicans lysate 10^9 cells/mL", "result": "decrease in degradation"}, {"measurement": "activity against phytopathogenic filamentous fungi", "setting": "[5]", "result": "active"}]}
